From US10272117B2, “Methods of using an activator of cereblon for neural cell expansion and the treatment of central nervous system disorders” (Celgene Corporation, priority 2014, dated 2019) come the findings set out here.

The data set relates to zebrafish embryos. Put plainly: Quantitative PCR of gene expression in zebrafish embryos. The class given is in vivo. How it is done:
BRD7-knockdown zebrafish embryos show similar phenotypes as CRBN-overexpressing zebrafish embryos. For example, expression of HuC in untreated, CRBN-overexpressing, and BRD7-knockdown zebrafish embryos was compared by quantitative PCR. Quantitative PCR was performed as follows: 1.7 μg of random […] and oligo-dT primed cDNA synthesized by ReverTra Ace qPCR RT Kit (TOYOBO, Japan) (as template) were used for reverse transcription by THUNDERBIRD™ SYBR® qPCR Mix (Toyobo, Japan). 0.25 mM of each forward and reverse primers were used in the reaction, wherein the sequence of the forward primer was 5′-[…]-3′ (SEQ ID NO: 9); and the sequence of the reverse primer was 5′-[…]-3′ (SEQ ID NO: 10).
Expression of Pou5f1 (Oct3/4), c-Myc, Sox2, and Nanog in zebrafish embryos was analyzed by quantitative PCR. Quantitative RT (qRT)-PCR was performed as follows: 1.7 μg of random hexamer and oligo-dT primed cDNA synthesized by ReverTra Ace qPCR RT Kit (TOYOBO, Japan) (as template) were used for reverse transcription by THUNDERBIRD™ SYBR® qPCR Mix (Toyobo, Japan). 0.25 mM of each forward and reverse primers was used in the reaction. The sequences of primers for c-Myc are as follows: forward primer is 5′-[…]-3′ (SEQ ID NO: 15), and reverse primer is 5′-GTAAAACGACGGCCAGT-3′ (SEQ ID NO: 16). The sequences of primers for sox2 are as follows: forward primer is 5′-ACCCCGGAGGAAAACCAA-3′ (SEQ ID NO: 17), and reverse primer is 5′-CCCGGCAGGGTGTACTTG-3′ (SEQ ID NO: 18). The sequences of primers for nanog are as follows: forward primer is 5′-TACCCAACACACCAGCTTC-3′ (SEQ ID NO: 19), and reverse primer is 5′-GAAGGGTGTTTTTGGAGGA-3′ (SEQ ID NO: 20).
Expression of a pool of three genes, Ascl1, Brn2 (Pou3f2), and Myt1la, is sufficient to directly reprogram embryonic and postnatal fibroblasts into functional neurons. See, e.g., Vierbuchen and Wernig, Nat Biotechnol. 29:892-907 […]. […] Primer sequences for amplification for Ascl1a are as follows: forward primer is 5′-ACGAGCATGACGCCGTA-3′ (SEQ ID NO: 21), and reverse primer is 5′-[…]-3′ (SEQ ID NO: 22). Primer sequences for amplification for Pou3f2b are as follows: forward primer is 5′-[…]-3′ (SEQ ID NO: 23), and reverse primer is 5′-[…]-3′(SEQ ID NO: 24). Primer sequences for amplification for Myt1la are as follows: forward primer is 5′-[…]-3′ (SEQ ID NO: 25), and reverse primer is 5′-[…]-3′ (SEQ ID NO: 26). FIG. […]
Notch3 and Neuropilin2b (Nrp2b) are required for cell proliferation progression. Notch3 regulates the timing of neural differentiation from undifferentiated or immature cells, and Nrp2b regulates cell proliferation and remodeling in mesenchymal stem cells by cooperating with PDGF (platelet-derived growth factor). Therefore, expression of Notch3 and Neuropilin 2b (Nrp2b) was analyzed in untreated and CRBN-overexpressing zebrafish embryos by quantitative PCR. The primers used for Notch3 are as follows: the sequence for forward primer is 5′-[…]-3′ (SEQ ID NO: 27), and the sequence for reverse primer is 5′-[…]-3′ (SEQ ID NO: 28). The primers used for Nrp2b are as follows: the sequence of forward primer is 5′-[…]-3′ (SEQ ID NO: 29), and the sequence of reverse primer is 5′-[…]-3′ (SEQ ID NO: 30). FIG. 29A is a histogram showing the mRNA level of Notch3 and Nrp2b in untreated, CRBN-overexpressing, and thalidomide-treated zebrafish embryos at 11 hpf by quantitative PCR. As shown, expression of Notch3 in the CRBN-overexpressing embryos increased to 1.8-fold of the level in the untreated embryos at 11 hpf, and expression of Nrp2b in the CRBN-overexpressing embryos increased to 2.7-fold of the level in the untreated embryos at the same stage.
Elval3 (Huc) is a neural progenitor marker. Expression of Elavl3 (Huc) was also analyzed by quantitative PCR and in situ hybridization. […]

Setting [1] is: 11 hpf, compared to untreated embryos.

Turning to “5′-TGTGTTTCTTGTGCTTTTTGCCCAT-3′ (all phosphorodiamidate morpholino (PMO)) [BRD7-knockdown, 25-mer antisense morpholino oligonucleotide (AMO) used for the BRD7 gene knockdown]”, for the setting “11 hpf”, the “expression of Ascl1 (change)” value is given as “increased”, the “expression of Brn2 (Pou3f2b) (change)” value is given as “increased” and the “expression of Myt1l (change)” value was “increased”. In addition, under “11 hpf, FIG. 13”, the “expression of Nanog (change)” value was “increased”, the “expression of Pou5f1 (change)” value is on record as “significantly increased” and the “expression of Zic3 (change)” value is “increased”. In addition, the “HuC (Elavl3) expression level” value (11 hpf, fold of level in untreated embryos) worked out at 1.7 fold. Moreover, where the note is “28 hpf”, the “expression of Ascl1 (change)” value was “increased”, the “expression of Myt1la (change)” value was “increased” and the “expression of Pou3f3a (change)” value was “increased”.
For “5′-AGAGCTGTAGCTGGTTCCCCATTTC-3′ (all phosphorodiamidate morpholino (PMO)) [CRBN-knockdown, 25-mer antisense morpholino oligonucleotide (AMO) used for the CRBN gene knockdown, reference compound]”, for the setting “11 hpf, FIG. 13”, the “expression of Nanog (change)” value was “decreased”, the “expression of Pou5f1 (change)” value is “decreased” and the “expression of Zic3 (change)” value is reported as “decreased”. Under setting [1], this substance came in with a Nanog expression of 0.8 fold, a Pou5f1 expression of 0.8 fold, a Sox2 expression of 0.7 fold and a Zic3 expression of 0.8 fold. In addition, under “23 hpf”, the “expression of Ascl1a (change)” value is given as “decreased” and the “expression of Pou3f2b (change)” value is listed as “decreased”.
For “5′-TTCCTGTGCCTCCTCAGTCTCCATC-3′ (all phosphorodiamidate morpholino (PMO)) [Ikaros-knockdown, 25-mer antisense morpholino oligonucleotide (AMO) used for the Ikaros gene knockdown]”, under “23 hpf”, the “expression of Ascl1a (change)” value is “increased” and the “expression of Pou3f2b (change)” value was “increased”. Further, where the note is “28 hpf”, the “expression of Ascl1 (change)” value is reported as “increased”, the “expression of Myt1la (change)” value is on record as “increased”, the “expression of Nanog (change)” value is recorded as “activated” and the “expression of Pou3f2b (change)” value is “increased”. In addition, where the note is “28 hpf”, the “expression of Pou3f3a (change)” value is recorded as “increased”, the “expression of Sox2 (change)” value is listed as “activated” and the “expression of c-Myc (change)” value was “activated”.
